{"source": "patent US20260325482A1", "about": "“TASIMELTEON FOR USE IN THE TREATMENT OF DELAYED SLEEP-WAKE PHASE DISORDER” (VANDA PHARMACEUTICALS INC., priority 2023, published 2026)", "origin": "cited, not measured here", "key": {"Non-24": {"tested_on": "Non-24", "conditions": "daily dose of 20 mg administered once, before bedtime"}, "[1]": {"conditions": "healthy volunteers, participants with primary insomnia, Non-24, and pediatric participants with SMS"}, "[2]": {"conditions": "high-calorie/high-fat meals"}, "MT2 receptor": {"tested_on": "MT2 receptor", "conditions": "MT2 receptor vs MT1 receptor"}, "SMS": {"tested_on": "SMS", "conditions": "daily dose of 0.7 mg/kg once daily; patients having a body mass of 28 kg or less"}}, "data": [{"smiles": "CCC(=O)NC[C@@H]1C[C@H]1c1cccc2c1CCO2", "note": "[tasimelteon]", "values": [{"measurement": "effectiveness in treating Non-24", "setting": "Non-24", "result": "effective"}, {"measurement": "safety and tolerability", "setting": "[1]", "result": "safe and well-tolerated"}, {"measurement": "Cmax with food", "setting": "[2]", "result": "significantly lower"}, {"measurement": "Tmax with food", "setting": "[2]", "result": "delay"}, {"measurement": "extent of absorption with food", "setting": "[2]", "result": "not significantly affected"}, {"measurement": "affinity for the MT2 receptor compared with the MT1 receptor", "setting": "MT2 receptor", "result": "greater affinity for the MT2 receptor than the MT1 receptor"}, {"measurement": "effectiveness in treating SMS", "setting": "SMS", "result": "effective"}, {"measurement": "linearity of pharmacokinetics", "setting": "doses ranging from 3 mg to 300 mg", "result": "linear"}, {"measurement": "absolute bioavailability", "setting": "oral", "result": 38, "unit": "%"}]}]}
